Measured values: patent publication US5026848A, “Novel generation of heteroaryloxyalkyl heterocycles with antipicornaviruses activities” (Synphar Laboratories Incorporated, priority 1988, dated 1991)
Values after ≈ are worked out from the molar mass of the structure shown. Where two headings read alike, the source gives them in different places.

Key:
WI38 cells = test: Toxicity to WI38 cells (change in morphology in / growth inhibition of 25% of the cells); type: cell-based
Rhinovirus 1A = test: Anti-rhinovirus activity, cytopathic effect inhibition / neutral red dye uptake, type 1A; type: cell-based; details: Enterovirus, WI-38; Table I; WI38 cells, 33° C., 3-4 days; NA = Not active; read-out: MIC50 Rhinovirus 1A
Rhinovirus 1B = test: Anti-rhinovirus activity, cytopathic effect inhibition / neutral red dye uptake, type 1B; type: cell-based; details: Enterovirus, WI-38; Table II; one of seven commonest serotypes; read-out: MIC 50 Rhinovirus Type 1B
Rhinovirus 2 = test: Anti-rhinovirus activity, cytopathic effect inhibition / neutral red dye uptake, type 2; type: cell-based; details: Enterovirus, WI-38; Table II; one of seven commonest serotypes; read-out: MIC 50 Rhinovirus Type 2
Rhinovirus 4 = test: Anti-rhinovirus activity, cytopathic effect inhibition / neutral red dye uptake, type 4; type: cell-based; details: Enterovirus, WI-38; Table II; one of seven commonest serotypes; read-out: MIC 50 Rhinovirus Type 4
Rhinovirus 15 = test: Anti-rhinovirus activity, cytopathic effect inhibition / neutral red dye uptake, type 15; type: cell-based; details: Enterovirus, WI-38; Table II; one of seven commonest serotypes; read-out: MIC 50 Rhinovirus Type 15
Rhinovirus 17 = test: Anti-rhinovirus activity, cytopathic effect inhibition / neutral red dye uptake, type 17; type: cell-based; details: Enterovirus, WI-38; Table II; read-out: MIC 50 Rhinovirus Type 17
Rhinovirus 23 = test: Anti-rhinovirus activity, cytopathic effect inhibition / neutral red dye uptake, type 23; type: cell-based; details: Enterovirus, WI-38; Table II; read-out: MIC 50 Rhinovirus Type 23
Rhinovirus 29 = test: Anti-rhinovirus activity, cytopathic effect inhibition / neutral red dye uptake, type 29; type: cell-based; details: Enterovirus, WI-38; Table II; one of seven commonest serotypes; read-out: MIC 50 Rhinovirus Type 29
Rhinovirus 30 = test: Anti-rhinovirus activity, cytopathic effect inhibition / neutral red dye uptake, type 30; type: cell-based; details: Enterovirus, WI-38; Table II; read-out: MIC 50 Rhinovirus Type 30
Rhinovirus 31 = test: Anti-rhinovirus activity, cytopathic effect inhibition / neutral red dye uptake, type 31; type: cell-based; details: Enterovirus, WI-38; Table II; one of seven commonest serotypes; read-out: MIC 50 Rhinovirus Type 31
Rhinovirus 32 = test: Anti-rhinovirus activity, cytopathic effect inhibition / neutral red dye uptake, type 32; type: cell-based; details: Enterovirus, WI-38; Table II; read-out: MIC 50 Rhinovirus Type 32
Rhinovirus 36 = test: Anti-rhinovirus activity, cytopathic effect inhibition / neutral red dye uptake, type 36; type: cell-based; details: Enterovirus, WI-38; Table II; read-out: MIC 50 Rhinovirus Type 36
Rhinovirus 39 = test: Anti-rhinovirus activity, cytopathic effect inhibition / neutral red dye uptake, type 39; type: cell-based; details: Enterovirus, WI-38
Rhinovirus 44 = test: Anti-rhinovirus activity, cytopathic effect inhibition / neutral red dye uptake, type 44; type: cell-based; details: Enterovirus, WI-38; Table II; read-out: MIC 50 Rhinovirus Type 44
Rhinovirus 49 = test: Anti-rhinovirus activity, cytopathic effect inhibition / neutral red dye uptake, type 49; type: cell-based; details: Enterovirus, WI-38; Table II; read-out: MIC 50 Rhinovirus Type 49
Rhinovirus 53 = test: Anti-rhinovirus activity, cytopathic effect inhibition / neutral red dye uptake, type 53; type: cell-based; details: Enterovirus, WI-38; Table II; read-out: MIC 50 Rhinovirus Type 53
Rhinovirus 56 = test: Anti-rhinovirus activity, cytopathic effect inhibition / neutral red dye uptake, type 56; type: cell-based; details: Enterovirus, WI-38; Table II; read-out: MIC 50 Rhinovirus Type 56
Rhinovirus 63 = test: Anti-rhinovirus activity, cytopathic effect inhibition / neutral red dye uptake, type 63; type: cell-based; details: Enterovirus, WI-38; Table II; read-out: MIC 50 Rhinovirus Type 63
Rhinovirus 86 = test: Anti-rhinovirus activity, cytopathic effect inhibition / neutral red dye uptake, type 86; type: cell-based; details: Enterovirus, WI-38; Table II; read-out: MIC 50 Rhinovirus Type 86
Rhinovirus 88 = test: Anti-rhinovirus activity, cytopathic effect inhibition / neutral red dye uptake, type 88; type: cell-based; details: Enterovirus, WI-38; Table II; read-out: MIC 50 Rhinovirus Type 88
Polio 1 = test: microbe, parasite or virus in culture; type: cell-based; details: Enterovirus, read-out: MIC 50 Polio 1
Coxsacki-A9 = test: Activity against other picornaviruses, Coxsacki-A9; type: cell-based; details: Enterovirus, read-out: MIC 50 Cox. A9
Coxsacki-A21 = test: Activity against other picornaviruses, Coxsacki-A21; type: cell-based; details: Enterovirus, read-out: MIC 50 Cox. A21
Coxsacki-B1 = test: Activity against other picornaviruses, Coxsacki-B1; type: cell-based; details: Enterovirus, read-out: MIC 50 Cox. B1
Coxsacki-B4 = test: Activity against other picornaviruses, Coxsacki-B4; type: cell-based; details: Enterovirus, read-out: MIC 50 Cox. B4
Echo-7 = test: Activity against other picornaviruses, Echo-7; type: cell-based; details: Enterovirus, read-out: MIC 50 Echo 7
Echo-11 = test: Activity against other picornaviruses, Echo-11; type: cell-based; details: Enterovirus, read-out: MIC 50 Echo 11
Enterovirus serotypes = type: cell-based; details: for All Enterovirus Serotypes (number of serotypes active / tested): Table III, numerator, denominator 7, but 5 for compound 8
HRV-1A and HRV-39 = test: Anti-rhinovirus activity against HRV-1A and HRV-39; details: in words
[1] = system: 20 serotypes of rhinovirus; test: Anti-rhinovirus activity against a panel of 20 serotypes; details: Table II; numerator; denominator 20, but 10 for compound 8 and 6 for compound 30
[2] = Table I, concentration with change in morphology in 25% of WI38 cells
[3] = Table I, WI38 cells, 33° C., 3-4 days, read-out: MIC50 Rhinovirus 39

SMILES | Toxicity (WI38 cells; [2]) | Toxicity (WI38 cells; Table II) | Toxicity (WI38 cells; Table III) | EC50 (Rhinovirus 1A) | IC50 (Rhinovirus 1B) | IC50 (Rhinovirus 2) | IC50 (Rhinovirus 4) | IC50 (Rhinovirus 15) | IC50 (Rhinovirus 17) | IC50 (Rhinovirus 23) | IC50 (Rhinovirus 29) | IC50 (Rhinovirus 30) | EC50 (Rhinovirus 31) | EC50 (Rhinovirus 32) | EC50 (Rhinovirus 36) | EC50 (Rhinovirus 39; [3]) | EC50 (Rhinovirus 44) | EC50 (Rhinovirus 49) | EC50 (Rhinovirus 53) | EC50 (Rhinovirus 56) | other results
Cc1cc(CCCCCCCOc2ccc3oc4ccccc4c3c2)on1 [Compound 5] | 100 µg/mL | 100 µg/mL | 100 µg/mL | 5 µg/mL (≈ 13.8 µM) | 5 µg/mL (≈ 13.8 µM) | > 25 µg/mL | < 0.5 µg/mL | 5 µg/mL (≈ 13.8 µM) | 10 µg/mL (≈ 27.5 µM) | 5 µg/mL (≈ 13.8 µM) | 5 µg/mL (≈ 13.8 µM) | 0.5 µg/mL (≈ 1.38 µM) | 10 µg/mL (≈ 27.5 µM) | 25 µg/mL (≈ 68.8 µM) | > 25 µg/mL | 1 µg/mL (≈ 2.75 µM) | < 0.5 µg/mL | > 25 µg/mL | 10 µg/mL (≈ 27.5 µM) | 5 µg/mL (≈ 13.8 µM) | EC50 (Rhinovirus 63): 10 µg/mL (≈ 27.5 µM); EC50 (Rhinovirus 86): 0.5 µg/mL (≈ 1.38 µM); EC50 (Rhinovirus 88): 0.5 µg/mL (≈ 1.38 µM); EC50 (Polio 1): 10 µg/mL (≈ 27.5 µM); EC50 (Coxsacki-A9): 5 µg/mL (≈ 13.8 µM); IC50 (Coxsacki-A21): 5 µg/mL (≈ 13.8 µM); IC50 (Coxsacki-B1): 10 µg/mL (≈ 27.5 µM); IC50 (Coxsacki-B4): > 25 µg/mL; IC50 (Echo-7): 25 µg/mL (≈ 68.8 µM); IC50 (Echo-11): > 25 µg/mL; inhibitory activity against the members of the Entero virus family (Enterovirus serotypes): remarkable inhibitory activity; All Enterovirus Serotypes (number of serotypes active / tested) (Enterovirus serotypes): 5; inhibitory activity against HRV-1A and HRV-39 in vitro (HRV-1A and HRV-39): remarkably inhibitory activity; All Rhinovirus Serotypes (number of serotypes active / tested) [1]: 17
Cc1cnsc1CCCCCCOc1ccc2oc3ccccc3c2c1 [Compound 19] | 50 µg/mL | 50 µg/mL | 50 µg/mL | 10 µg/mL (≈ 27.4 µM) | 5 µg/mL (≈ 13.7 µM) | 10 µg/mL (≈ 27.4 µM) | > 25 µg/mL | 10 µg/mL (≈ 27.4 µM) | > 25 µg/mL | 10 µg/mL (≈ 27.4 µM) | 10 µg/mL (≈ 27.4 µM) | 0.5 µg/mL (≈ 1.37 µM) | > 25 µg/mL | > 25 µg/mL | > 25 µg/mL | 5 µg/mL (≈ 13.7 µM) | < 0.5 µg/mL | > 25 µg/mL | 10 µg/mL (≈ 27.4 µM) | 10 µg/mL (≈ 27.4 µM) | EC50 (Rhinovirus 63): 10 µg/mL (≈ 27.4 µM); EC50 (Rhinovirus 86): 10 µg/mL (≈ 27.4 µM); EC50 (Rhinovirus 88): 1 µg/mL (≈ 2.74 µM); EC50 (Polio 1): > 25 µg/mL; EC50 (Coxsacki-A9): 10 µg/mL (≈ 27.4 µM); IC50 (Coxsacki-A21): 10 µg/mL (≈ 27.4 µM); IC50 (Coxsacki-B1): 5 µg/mL (≈ 13.7 µM); IC50 (Coxsacki-B4): > 25 µg/mL; IC50 (Echo-7): 25 µg/mL (≈ 68.4 µM); IC50 (Echo-11): > 25 µg/mL; inhibitory activity against the members of the Entero virus family (Enterovirus serotypes): remarkable inhibitory activity; All Enterovirus Serotypes (number of serotypes active / tested) (Enterovirus serotypes): 4; inhibitory activity against HRV-1A and HRV-39 in vitro (HRV-1A and HRV-39): remarkably inhibitory activity; All Rhinovirus Serotypes (number of serotypes active / tested) [1]: 14
Cc1cc(CCCCCCCOc2cc(C)nc3ccccc23)on1 [Compound 9, 5-[7-(2-methylquinolin-4-yl)oxyheptyl]-3-methisoxazole] | 50 µg/mL | 50 µg/mL | 50 µg/mL | 5 µg/mL (≈ 14.8 µM) | 10 µg/mL (≈ 29.5 µM) | 1 µg/mL (≈ 2.95 µM) | 10 µg/mL (≈ 29.5 µM) | 5 µg/mL (≈ 14.8 µM) | > 25 µg/mL | 5 µg/mL (≈ 14.8 µM) | 5 µg/mL (≈ 14.8 µM) | 0.5 µg/mL (≈ 1.48 µM) | 1 µg/mL (≈ 2.95 µM) | 10 µg/mL (≈ 29.5 µM) | 10 µg/mL (≈ 29.5 µM) | 1 µg/mL (≈ 2.95 µM) | 1 µg/mL (≈ 2.95 µM) | 10 µg/mL (≈ 29.5 µM) | 5 µg/mL (≈ 14.8 µM) | 5 µg/mL (≈ 14.8 µM) | EC50 (Rhinovirus 39; Table II, read-out: MIC 50 Rhinovirus Type 39): 5 µg/mL (≈ 14.8 µM); EC50 (Rhinovirus 63): 5 µg/mL (≈ 14.8 µM); EC50 (Rhinovirus 86): 5 µg/mL (≈ 14.8 µM); EC50 (Rhinovirus 88): < 0.5 µg/mL; EC50 (Polio 1): > 25 µg/mL; EC50 (Coxsacki-A9): > 25 µg/mL; IC50 (Coxsacki-A21): 10 µg/mL (≈ 29.5 µM); IC50 (Coxsacki-B1): > 25 µg/mL; IC50 (Coxsacki-B4): 10 µg/mL (≈ 29.5 µM); IC50 (Echo-7): > 25 µg/mL; IC50 (Echo-11): > 25 µg/mL; inhibitory activity against the members of the Entero virus family (Enterovirus serotypes): remarkable inhibitory activity; All Enterovirus Serotypes (number of serotypes active / tested) (Enterovirus serotypes): 2; inhibitory activity against HRV-1A and HRV-39 in vitro (HRV-1A and HRV-39): remarkably inhibitory activity; All Rhinovirus Serotypes (number of serotypes active / tested) [1]: 19
c1ccc2c(c1)oc1ccc(OCCCCCCc3ccns3)cc12 [Compound 25] | 50 µg/mL | 50 µg/mL | 50 µg/mL | 10 µg/mL (≈ 28.5 µM) | 5 µg/mL (≈ 14.2 µM) | 20 µg/mL (≈ 56.9 µM) | > 25 µg/mL | 10 µg/mL (≈ 28.5 µM) | 10 µg/mL (≈ 28.5 µM) | 5 µg/mL (≈ 14.2 µM) | 5 µg/mL (≈ 14.2 µM) | 10 µg/mL (≈ 28.5 µM) | > 25 µg/mL | 10 µg/mL (≈ 28.5 µM) | > 25 µg/mL | 5 µg/mL (≈ 14.2 µM) | 5 µg/mL (≈ 14.2 µM) | > 25 µg/mL | 10 µg/mL (≈ 28.5 µM) | 10 µg/mL (≈ 28.5 µM) | EC50 (Rhinovirus 63): 5 µg/mL (≈ 14.2 µM); EC50 (Rhinovirus 86): 10 µg/mL (≈ 28.5 µM); EC50 (Rhinovirus 88): 10 µg/mL (≈ 28.5 µM); EC50 (Polio 1): 10 µg/mL (≈ 28.5 µM); EC50 (Coxsacki-A9): 10 µg/mL (≈ 28.5 µM); IC50 (Coxsacki-A21): 5 µg/mL (≈ 14.2 µM); IC50 (Coxsacki-B1): > 25 µg/mL; IC50 (Coxsacki-B4): > 25 µg/mL; IC50 (Echo-7): 5 µg/mL (≈ 14.2 µM); IC50 (Echo-11): > 25 µg/mL; inhibitory activity against the members of the Entero virus family (Enterovirus serotypes): remarkable inhibitory activity; All Enterovirus Serotypes (number of serotypes active / tested) (Enterovirus serotypes): 4; inhibitory activity against HRV-1A and HRV-39 in vitro (HRV-1A and HRV-39): remarkably inhibitory activity; All Rhinovirus Serotypes (number of serotypes active / tested) [1]: 16
